Measured values published in ChEMBL document CHEMBL1201862, “PubChem BioAssay data set” (2004).
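96-well plates; 48 h exposure; 5 concentrations. Endpoints by linear interpolation between flanking doses. Not reached: highest tested concentration assigned. At the GI50, growth is halved.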 Activity calls are given as the source filed them. Rule as the data show it: active = GI50 up to about 1.1 µM and inactive = higher.

What was measured:
Assay in all cases: NCI-60 cell line screen, 48 h
OVCAR-4 = test system: OVCAR-4
A549 = test system: A549
MOLT-4 = test system: MOLT-4
SF-268 = test system: SF-268
HOP-18 = test system: HOP-18
IGROV-1 = test system: IGROV-1
SF-295 = test system: SF-295
SW-620 = test system: SW-620
K562 = test system: K562
TK-10 = test system: TK-10
RPMI-8226 = test system: RPMI-8226
HT-29 = test system: HT-29
Malme-3M = test system: Malme-3M
KM12 = test system: KM12
SK-OV-3 = test system: SK-OV-3
U-251 = test system: U-251
LOX IMVI = test system: LOX IMVI
NCI-H226 = test system: NCI-H226
RXF 393 = test system: RXF 393
BT-549 = test system: BT-549

Row | Compound | GI50 (OVCAR-4) | GI50 (A549) | GI50 (MOLT-4) | GI50 (SF-268) | GI50 (HOP-18) | GI50 (IGROV-1) | GI50 (SF-295) | GI50 (SW-620) | GI50 (K562) | GI50 (TK-10) | GI50 (RPMI-8226) | GI50 (HT-29) | GI50 (Malme-3M) | GI50 (KM12) | GI50 (SK-OV-3) | GI50 (U-251) | GI50 (LOX IMVI) | GI50 (NCI-H226) | GI50 (RXF 393) | GI50 (BT-549)
1 | O=C(O)c1cc(-c2ccccc2O)nc2ccccc12 | > 100 µM (inactive) | > 100 µM (inactive) | > 100 µM (inactive) | > 100 µM (inactive) | 26.2 µM (inactive) | > 100 µM (inactive) | > 100 µM (inactive) | > 100 µM (inactive) | > 100 µM (inactive) | > 100 µM (inactive) | > 100 µM (inactive) | > 100 µM (inactive) | > 100 µM (inactive) | > 100 µM (inactive) | > 100 µM (inactive) | > 100 µM (inactive) |  |  |  | 
2 | CC(=O)O[C@H]1CCN2C(=O)C=CC(OCc3ccccc3)C12 (stereo partly drawn) | > 100 µM (inactive) | > 100 µM (inactive) | > 100 µM (inactive) | > 100 µM (inactive) | > 100 µM (inactive) | > 100 µM (inactive) | > 100 µM (inactive) | > 100 µM (inactive) | > 100 µM (inactive) | > 100 µM (inactive) | > 100 µM (inactive) | > 100 µM (inactive) | > 100 µM (inactive) | > 100 µM (inactive) | > 100 µM (inactive) | > 100 µM (inactive) | > 100 µM (inactive) | > 100 µM (inactive) |  | 
3 | CCOC(=O)C(=O)Nc1nc2c(OCC)cccc2s1 | > 100 µM (inactive) | > 100 µM (inactive) | > 100 µM (inactive) | > 100 µM (inactive) | > 100 µM (inactive) | > 100 µM (inactive) | > 100 µM (inactive) | > 100 µM (inactive) | > 100 µM (inactive) | > 100 µM (inactive) | > 100 µM (inactive) | > 100 µM (inactive) | > 100 µM (inactive) | > 100 µM (inactive) | > 100 µM (inactive) | > 100 µM (inactive) | > 100 µM (inactive) | > 100 µM (inactive) | > 100 µM (inactive) | 
4 | Cn1c(N)c(-c2c3ccccc3nc3ccccc23)c(=O)n(C)c1=O | > 100 µM (inactive) | > 100 µM (inactive) | > 100 µM (inactive) | > 100 µM (inactive) | > 100 µM (inactive) | > 100 µM (inactive) | > 100 µM (inactive) | > 100 µM (inactive) | > 100 µM (inactive) | > 100 µM (inactive) | > 100 µM (inactive) | > 100 µM (inactive) | > 100 µM (inactive) | > 100 µM (inactive) | > 100 µM (inactive) | > 100 µM (inactive) |  |  | > 100 µM (inactive) | 
5 | CCOC(=O)CC1NC(=O)CS1 (stereo not drawn) | > 100 µM (inactive) | > 100 µM (inactive) | > 100 µM (inactive) | 49.7 µM (inactive) | > 100 µM (inactive) | > 100 µM (inactive) | > 100 µM (inactive) | 15.9 µM (inactive) | 80.4 µM (inactive) | > 100 µM (inactive) | 26.8 µM (inactive) | > 100 µM (inactive) | > 100 µM (inactive) | > 100 µM (inactive) | > 100 µM (inactive) | > 100 µM (inactive) |  | 12.6 µM (inactive) |  | 
6 | c1ccc(C2=Nc3nc4ccccc4n3C(c3ccccc3)C2)cc1 (stereo not drawn) | > 100 µM (inactive) | > 100 µM (inactive) | > 100 µM (inactive) | > 100 µM (inactive) |  | > 100 µM (inactive) | 79.8 µM (inactive) | > 100 µM (inactive) | > 100 µM (inactive) | > 100 µM (inactive) | > 100 µM (inactive) | > 100 µM (inactive) | > 100 µM (inactive) | > 100 µM (inactive) | > 100 µM (inactive) | > 100 µM (inactive) | > 100 µM (inactive) | > 100 µM (inactive) | 41 µM (inactive) | > 100 µM (inactive)
7 | CCC1=C(CC2NCCc3ccccc32)CC2c3cc(OC)c(OC)cc3CCN2C1 (stereo not drawn) | 0.237 µM (active) | 0.343 µM (active) | 0.276 µM (active) | 0.719 µM (active) |  | 0.693 µM (active) | 0.565 µM (active) | 0.384 µM (active) | 0.286 µM (active) | 0.728 µM (active) | 0.392 µM (active) | 0.284 µM (active) | 0.603 µM (active) | 0.443 µM (active) | 1.07 µM (active) | 0.55 µM (active) | 0.359 µM (active) | 0.757 µM (active) | 0.635 µM (active) | 2.14 µM (inactive)
8 | Cc1ccc(S(=O)(=O)n2cc(/C=C/C#N)c(/C=C/C#N)c2)cc1 | 59.4 µM (inactive) | 63.8 µM (inactive) | 29.3 µM (inactive) | 54 µM (inactive) | 20.8 µM (inactive) | > 100 µM (inactive) | 55.5 µM (inactive) | 40 µM (inactive) | 34 µM (inactive) | > 100 µM (inactive) | > 100 µM (inactive) | > 100 µM (inactive) | > 100 µM (inactive) | 48.4 µM (inactive) | > 100 µM (inactive) | 94.8 µM (inactive) | 56.6 µM (inactive) |  | 33.7 µM (inactive) | 
9 | O=C1CSC(c2ccccc2)N1c1ccc(-n2c(-c3ccccc3)nc3ccccc3c2=O)cc1 (stereo not drawn) | 42 µM (inactive) | > 74.6 µM (inactive) | 28.1 µM (inactive) | 96.8 µM (inactive) |  | 34.8 µM (inactive) | 63.2 µM (inactive) | > 100 µM (inactive) | 33.1 µM (inactive) | > 100 µM (inactive) | 42.6 µM (inactive) | 61.4 µM (inactive) | > 92.5 µM (inactive) | 41.1 µM (inactive) | > 100 µM (inactive) | 59.8 µM (inactive) | 50.5 µM (inactive) | > 77.3 µM (inactive) | > 100 µM (inactive) | > 80.7 µM (inactive)
10 | Cc1cc(C)c(S(=O)(=O)N(CCCN)OCCCON(CCCN)S(=O)(=O)c2c(C)cc(C)cc2C)c(C)c1 | 2.29 µM (inactive) | 1.77 µM (inactive) | 2.03 µM (inactive) | 1.42 µM (inactive) |  | 1.98 µM (inactive) | 7.66 µM (inactive) | 2.49 µM (inactive) | 2.69 µM (inactive) | 4.5 µM (inactive) | 2.38 µM (inactive) | 1.67 µM (inactive) | 0.879 µM (active) | 1.9 µM (inactive) | 1.82 µM (inactive) | 1.64 µM (inactive) | 1.87 µM (inactive) | 2.2 µM (inactive) | 4.6 µM (inactive) | 3.1 µM (inactive)
11 | C#CCN(C)C(=O)N(CC#C)N=O | > 100 µM (inactive) | > 100 µM (inactive) | > 100 µM (inactive) | > 100 µM (inactive) | > 100 µM (inactive) | > 100 µM (inactive) | > 100 µM (inactive) | > 100 µM (inactive) | > 100 µM (inactive) | > 100 µM (inactive) | > 100 µM (inactive) | > 100 µM (inactive) | > 100 µM (inactive) | > 100 µM (inactive) | > 100 µM (inactive) | 54.2 µM (inactive) | > 100 µM (inactive) |  | > 100 µM (inactive) | 
12 | COc1ccc(CNc2nc3ccccc3nc2-c2cccs2)cc1OC |  | 16.2 µM (inactive) | 12.6 µM (inactive) | 47.4 µM (inactive) | > 100 µM (inactive) |  | 42.4 µM (inactive) | 93.3 µM (inactive) | 59.4 µM (inactive) | 74 µM (inactive) | 72.3 µM (inactive) | 46.2 µM (inactive) | 45.1 µM (inactive) |  |  | 75.5 µM (inactive) |  | 68.5 µM (inactive) | 41.9 µM (inactive) | 
13 | O=c1c(Br)c(-c2ccccc2)[s+]([O-])c2ccccc12 (stereo not drawn) | 1.59 µM (inactive) | 24.2 µM (inactive) | 1.22 µM (inactive) | 16.4 µM (inactive) |  | 10.1 µM (inactive) | 17.9 µM (inactive) | 16.7 µM (inactive) | 2.74 µM (inactive) | 18.2 µM (inactive) | 1.61 µM (inactive) | 13.2 µM (inactive) | 10.4 µM (inactive) | 15.8 µM (inactive) | 17.7 µM (inactive) | 8.07 µM (inactive) | 11.8 µM (inactive) | 15.8 µM (inactive) | 12.2 µM (inactive) | 17.9 µM (inactive)
14 | CC(C)OC(=O)/C=C/C(=O)O/C=C/[N+](=O)[O-] | 26.9 µM (inactive) | 26.9 µM (inactive) | 15.9 µM (inactive) | 24.5 µM (inactive) |  | 31.6 µM (inactive) | 27.9 µM (inactive) | 25.4 µM (inactive) | 7.64 µM (inactive) | 32.6 µM (inactive) | 15.5 µM (inactive) | 24.5 µM (inactive) | 29.6 µM (inactive) | 21.5 µM (inactive) | 66.8 µM (inactive) | 21.7 µM (inactive) | 17.5 µM (inactive) | 39.9 µM (inactive) | 18.3 µM (inactive) | 41.8 µM (inactive)
15 | CN(C)CCNC(=O)c1cccc2c1nc(-c1ccccc1)c1ccccc12 | 5.45 µM (inactive) | 1.07 µM (active) | 0.323 µM (active) | 5.79 µM (inactive) | 14.7 µM (inactive) | 3.16 µM (inactive) | 4.67 µM (inactive) | 2.4 µM (inactive) | 2.17 µM (inactive) | 3.93 µM (inactive) |  | 3.35 µM (inactive) |  | 6.19 µM (inactive) | 6.24 µM (inactive) | 5 µM (inactive) | 1.47 µM (inactive) | 2.83 µM (inactive) | 2.58 µM (inactive) | 
